# Laboratory results as given in PubChem BioAssay (NCI).
# “And” between values parts separate entries of the source, which are not always exact repeats. Equal values may be shown once.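 Growth conditions: 96-well plates. Treatment: test compound, 48 hours, 5 concentrations. Analysis: linear interpolation between bracketing concentrations; unreached endpoints set to highest concentration. GI50 is the concentration that inhibits growth by half. TGI marks complete inhibition of growth.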
# Columns and labels:
# Assay in all cases: NCI-60 cell line screen, 48 h
# [1] = system: SK-OV-3 ovarian
# [2] = system: MDA-MB-435
# [3] = system: MALME-3M melanoma
# [4] = system: SW-620 colon
# [5] = system: NCI-H522 lung
# [6] = system: HOP-62 NSCLC
# [7] = system: SNB-75 CNS
# [8] = system: COLO 205 colon
# [9] = system: KM12 colon
# [10] = system: UO-31 renal
SMILES,TGI [1],TGI [2],TGI [3],TGI [4],TGI [5],TGI [6],TGI [7],TGI [8],TGI [9],TGI [10],GI50 [1],GI50 [2],GI50 [3],GI50 [4],GI50 [5],GI50 [6],GI50 [7],GI50 [8],GI50 [9],GI50 [10]
C[C@]12CCC(=O)C(O)=C1CC[C@@H]1[C@@H]2CC[C@]2(C)C(=O)CC[C@@H]12,> 100 µM,> 100 µM,> 100 µM,> 100 µM,> 100 µM,> 100 µM,> 100 µM,> 100 µM,> 100 µM,> 100 µM,,,,,,,,,,
Cc1ccc2c(=O)c3cccc(CC(=O)O)c3oc2c1C,> 100 µM,> 100 µM,> 100 µM,> 100 µM,> 100 µM,> 100 µM,> 100 µM,> 100 µM,> 100 µM,> 100 µM,> 100 µM,> 100 µM,> 100 µM,> 100 µM,> 100 µM,> 100 µM,> 100 µM,> 100 µM,> 100 µM,> 100 µM
O=C1c2ccccc2-c2c1c1ccccc1c(=O)n2CCNCCNCCn1c2c(c3ccccc3c1=O)C(=O)c1ccccc1-2,36.2 µM,19.6 µM,16.2 µM,1.93 µM,,4.5 µM,47.5 µM,> 60.8 µM,1.72 µM,,12.8 µM,0.97 µM,0.207 µM,0.0296 µM,2.28 µM,0.0288 µM,7.95 µM,2.62 µM,0.0327 µM,0.519 µM
O=C1c2ccccc2-c2c1c1ccccc1c(=O)n2CCCN1CCOCC1,45 µM,> 100 µM,45.1 µM,> 100 µM,> 63.3 µM,18.7 µM,> 27.7 µM,> 100 µM,> 100 µM,> 100 µM,17.7 µM,> 100 µM,9.43 µM,20.2 µM,10.1 µM,6.22 µM,2.98 µM,> 100 µM,> 100 µM,17.1 µM
COC(=O)/C(=C\c1c(C)[nH]c2ccccc12)S(=O)(=O)c1ccccc1,41.4 µM,13.8 µM,32.6 µM,21.9 µM,14.4 µM,29.4 µM,14.6 µM,22.1 µM,6.31 µM,18.4 µM,9.27 µM,2.86 µM,7.27 µM,5.15 µM,3.19 µM,7.69 µM,3.08 µM,7.45 µM,2.37 µM,4.39 µM
COc1ccc(/C=C\c2cc(OC)c(OC)c(OC)c2)cc1OCC(=O)Nc1nc2ccc(C(F)(F)F)cc2s1,17.2 µM,5.91 µM,> 100 µM,> 100 µM,19.6 µM,> 100 µM,6.47 µM,68 µM,11.5 µM,> 100 µM,3.29 µM,1.84 µM,> 100 µM,4.65 µM,2.89 µM,5.22 µM,1.58 µM,17.1 µM,3.14 µM,3.59 µM
CNC(=O)c1cccc(-c2ccc3c(N4CCOC[C@@H]4C)nc(N4CCOC[C@@H]4C)nc3n2)c1,0.479 µM and 0.451 µM and 0.438 µM,1.8 µM and 1.34 µM and 1.27 µM,0.55 µM and 0.524 µM and 0.138 µM,> 100 µM,> 100 µM,> 100 µM and > 5.18 µM and 10.2 µM,0.373 µM and 0.647 µM and 0.403 µM,,> 100 µM,,0.0333 µM and 0.0903 µM and 0.0446 µM,0.0925 µM and 0.204 µM and 0.147 µM,0.0201 µM and 0.0351 µM and < 0.0204 µM,0.26 µM and 0.356 µM and 0.293 µM,0.0505 µM and 0.0991 µM and 0.0479 µM,0.153 µM and 0.273 µM and 0.17 µM,0.027 µM and 0.117 µM and 0.0316 µM,0.0648 µM and 0.204 µM and 0.142 µM,0.0947 µM and 0.273 µM and 0.179 µM,0.0278 µM and 0.0604 µM and 0.0328 µM
CCN(CC)CCOc1ccc(/C=C2\CC3C4CC=C5C[C@@H](N6CCCC6)CC[C@]5(C)C4CC[C@]3(C)[C@H]2O)cc1OC (stereo partly drawn),> 70.8 µM,14.5 µM,9.82 µM,7.38 µM,> 30.2 µM,15.3 µM,> 69.4 µM,23 µM,11.9 µM,16.9 µM,27.2 µM,3.86 µM,3.68 µM,0.624 µM,9.06 µM,5.82 µM,14.6 µM,5.4 µM,2.67 µM,4.29 µM
CC1=Cc2cc3[n-]c(cc4nc(cc5[n-]c(cc1n2)cc5C)C(C)=C4CCC(=O)O)c(CCC(=O)O)c3C.[Pd+2],30.1 µM,> 100 µM,38.5 µM,> 63.4 µM,> 26.7 µM,34.3 µM,29.9 µM,41.6 µM,53.3 µM,21.5 µM,11.5 µM,68.9 µM,10.5 µM,15.2 µM,,17.7 µM,6.8 µM,16.8 µM,27 µM,9.73 µM
CCOC(CN=c1nc(N(C)C)ss1)OCC,> 100 µM,32.4 µM,52.9 µM,25.9 µM,1.45 µM,> 100 µM,78.4 µM,7.28 µM,38.9 µM,63.3 µM,,,,,,,,,,
O=c1cc(-c2ccccc2)nc2n1CCN2Cc1ccccc1,> 100 µM,> 100 µM,,> 100 µM,56.1 µM,> 100 µM,> 100 µM,68.1 µM,> 100 µM,74.7 µM,51.3 µM,31.1 µM,,39.1 µM,20.8 µM,63.8 µM,60.5 µM,26.1 µM,35.7 µM,21.3 µM
C[N+](C)(CCCCCC[N+](C)(C)CCCN1C(=O)c2cc3ccccc3cc2C1=O)CCCN1C(=O)c2ccccc2C1=O,> 37.5 µM,> 37.5 µM,> 37.5 µM,> 37.5 µM,> 37.5 µM,> 37.5 µM,> 37.5 µM,> 37.5 µM,> 37.5 µM,> 37.5 µM,> 37.5 µM,> 37.5 µM,> 37.5 µM,> 37.5 µM,> 37.5 µM,> 37.5 µM,> 37.5 µM,> 37.5 µM,> 37.5 µM,> 37.5 µM
Cc1ccc2c(N)c(C(=O)N[C@H]3CCc4cc(N5CC6CCC(C5)N6)ccc4C3)sc2n1,2.99 µM,2.34 µM,2.04 µM,2.13 µM,1.59 µM,2.36 µM,2.83 µM,1.49 µM,3.33 µM,3.24 µM,0.422 µM,0.359 µM,0.441 µM,0.293 µM,0.265 µM,0.291 µM,0.355 µM,0.383 µM,0.693 µM,0.577 µM
